Drawing on patent US20190010167A1, “INHIBITORS OF THE MENIN-MLL INTERACTION” (Vitae Pharmaceuticals, Inc., priority 2015, published 2019), this text covers IC50 for 19 compounds.

Experiment [1] has as its target T1, menin/MLL (Gal4-Menin and MLL1-46-VP16) in HEK293 cells (Homo sapiens, UniProt O00255).
T1 construct: expressed in transfected cells; host or cells: HEK293 (ATCC)
The experiment in a line: Mammalian cellular two-hybrid assay in HEK293 cells (Assay 2, cell assay). The format is cell-based. The conditions noted are these: Gal4-Menin/MLL1-46-VP16 two-hybrid, NanoLuc luciferase reporter, 16-18 h. The method, then:
Potencies of inhibitor compounds against menin/MLL were tested in a mammalian cellular two-hybrid assay system. HEK293 cells (American Type Culture Collection (ATCC); Manassas, Va.) were co-transfected with three plasmids: one encoding Gal4-Menin (200 ng per 10^6 cells), another encoding MLL1-46-VP16 (100 ng per 10^6 cells), and a reporter plasmid pNL3.3-4×UAS (500 ng per 10^6 cells) encoding secreted NanoLuc® luciferase (Promega) with the upstream 4×UAS repeats for Gal4 binding. Transfection was performed in Opti-MEM® media using Lipofectamine® LTX with Plus™ Reagent (ThermoFisher Scientific) according to manufacturer's protocol. Cells were incubated with transfection reagents at 37° C. 5% CO2 for 5-6 h, harvested by trypsinization and centrifugation at 300×g for 5 min and resuspended in Gibco® DMEM media (phenol red-free, no antibiotics) containing 10% delipidated fetal bovine serum (FBS) (ThermoFisher Scientific). Concentration of cells in the media was adjusted to 3.5×10^5 cells/ml, and 100 μl of the cell suspension was dispensed into each well of 96-well Costar™ black clear bottom cell culture plates (Fisher Scientific). Tested compounds were added as 100 μL of 2× solutions in the media. Final concentration of DMSO was 0.1% in all wells. The cells were incubated with tested compounds at 37° C. 5% CO2 for 16-18 h. At the end of the incubation, 40 μL of the conditioned media from each well was transferred into each well of 96-well Costar™ black half-area plates (Fisher Scientific), to which 40 μl of 2× reconstituted NanoGlo® luciferase assay reagent (Promega) was added and thoroughly mixed on a microshaker for 2-3 min. Remaining media in the culture plates was removed by emptying the wells and blotting the plates on filter paper. The cells were lysed with 1× CellTiter-Glo® Luminescent Cell Viability Assay reagent (Promega) for assessing toxicity of the tested compounds. Both, Nano-Glo® and CellTiter-Glo® luminescence intensities were measured on EnVision® multilabel plate reader (PerkinElmer). Percent inhibition values were calculated based on Nano-Glo® luciferase activity observed with the tested compounds vs. DMSO control and commercially available menin inhibitor MI-2-2 (4-(4-(5,5-Dimethyl-4,5-dihydrothiazol-2-yl)piperazin-1-yl)-6-(2,2,2-trifluoroethyl)thieno[2,3-d]pyrimidine) (EMD Millipore, Cat. No. 444825) incubated with cells at 5 μM. These percent inhibition values were regressed against compound concentrations in the assay using non-linear 4-parameter logit curve fitting (XLFit, IDBS). Half maximal inhibitory concentrations (IC50) were calculated as the parameters of the fit corresponding to the inflection points on semi-logarithmic dose-response curves.
For orientation: In a reporter assay the amount or activity of a reporter protein is the signal.

Experiment [2] concerns the target T2, wild-type menin / MLL-AF9 fusion protein (Homo sapiens, UniProt O00255).
T2 construct: made in house; host or cells: E. coli (menin); HEK293 cleared lysate (MLL-AF9-FLAG)
T2 sequence (O00255 1-610): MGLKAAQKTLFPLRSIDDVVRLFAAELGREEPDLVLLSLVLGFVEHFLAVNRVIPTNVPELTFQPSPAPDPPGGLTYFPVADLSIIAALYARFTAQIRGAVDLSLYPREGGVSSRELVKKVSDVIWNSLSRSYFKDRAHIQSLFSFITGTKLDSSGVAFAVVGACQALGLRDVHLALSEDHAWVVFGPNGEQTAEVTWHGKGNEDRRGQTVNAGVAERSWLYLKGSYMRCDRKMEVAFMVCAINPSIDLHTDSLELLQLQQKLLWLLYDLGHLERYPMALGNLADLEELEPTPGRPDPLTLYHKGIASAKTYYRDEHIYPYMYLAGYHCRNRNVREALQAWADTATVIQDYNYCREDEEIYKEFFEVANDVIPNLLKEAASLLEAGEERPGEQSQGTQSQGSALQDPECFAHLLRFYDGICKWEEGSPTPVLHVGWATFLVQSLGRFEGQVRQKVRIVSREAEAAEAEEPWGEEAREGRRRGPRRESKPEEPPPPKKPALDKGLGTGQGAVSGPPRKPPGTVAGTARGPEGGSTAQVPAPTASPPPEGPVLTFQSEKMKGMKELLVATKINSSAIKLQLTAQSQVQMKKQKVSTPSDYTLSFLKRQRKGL
Description: AlphaLISA menin/MLL binding assay, wild-type menin (Assay 1). The conditions noted are these: biotinylated wild-type menin 5 nM, MLL-AF9-FLAG lysate. The essentials: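 Biotinylated wild-type or mutated menin (5 nM, E. coli-expressed) was preincubated 30 min at RT with compound and HEK293 lysate containing MLL1-1,396–AF9 1-92–FLAG. Buffer was 50 mM Tris-HCl pH 7.4, 5% DMSO, 50 mM NaCl, 0.01% BSA, 1 mM DTT. Anti-FLAG acceptor and streptavidin donor beads (10 μg/mL each) were then added for 60 min. IC50 came from a four-parameter fit of the Alpha signal inhibition.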

T1 sequence (P04386 1-147 partner limits assumed, species assumed, one chain of several): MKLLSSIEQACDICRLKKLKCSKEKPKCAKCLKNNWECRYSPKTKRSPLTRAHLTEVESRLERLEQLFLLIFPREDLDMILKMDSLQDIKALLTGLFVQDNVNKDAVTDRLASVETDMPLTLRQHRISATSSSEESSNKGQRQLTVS

Usually IC50 stands for the point on the concentration scale where inhibition reaches its midpoint. The low end stands for greater potency, the high end for weaker potency. Take `COC(=O)N[C@H]1CC[C@H](CN2CCC3(CC2)CN(c2ncnc4sc(CC(F)(F)F)cc24)C3)CC1` [Example 107, methyl ((1r,4r)-4-((2-(6-(2,2,2-trifluoroethyl)thieno[2,3-d]pyrimidin-4-yl)-2,7-diazaspiro[3.5]nonan-7-yl)methyl)cyclohexyl)carbamate]: the IC50 in experiment [1] was 100 to 1000 nM; in experiment [2], < 100 nM.

On to `CC(C)CN1CC2(CCN(c3ncnc4sc(CC(F)(F)F)cc34)C2)C1` [Example 108, 4-(2-isobutyl-2,6-diazaspiro[3.4]octan-6-yl)-6-(2,2,2-trifluoroethyl)thieno[2,3-d]pyrimidine], for which the results for the IC50 in experiment [1] and in experiment [2] were 100 to 1000 nM and < 100 nM, respectively.

In the case of `FC(F)(F)Cc1cc2c(N3CCC4(CC3)CN(Cc3ccccc3)C4)ncnc2s1` [Example 1, 4-(2-benzyl-2,7-diazaspiro[3.5]nonan-7-yl)-6-(2,2,2-trifluoroethyl) thieno[2,3-d]pyrimidine], the IC50 in experiment [1] and in experiment [2] was ≥ 1000 nM each time.

For the compound `FC(F)(F)Cc1cc2c(N3CC4(CN(CC5CCCCC5)C4)C3)ncnc2s1` [Example 69, 4-(6-(cyclohexylmethyl)-2,6-diazaspiro[3.3]heptan-2-yl)-6-(2,2,2-trifluoroethyl)thieno[2,3-d]pyrimidine], the results for the IC50 in experiment [1] and in experiment [2] were 100 to 1000 nM and < 100 nM, respectively.

With `CC(=O)Nc1ccc(CN2CCC3(CCN(c4ncnc5sc(CC(F)(F)F)cc45)C3)C2)c(Cl)c1` (centres unmarked) [Example 44, N-(3-chloro-4-((7-(6-(2,2,2-trifluoroethyl)thieno[2,3-d]pyrimidin-4-yl)-2,7-diazaspiro[4.4]nonan-2-yl)methyl)phenyl)acetamide], the half-inhibitory concentration (IC50) in experiment [1] is 100 to 1000 nM; in experiment [2] it was < 100 nM.

Consider `CC(C)CN1CCC2(CCN(c3ncnc4sc(CC(F)(F)F)cc34)CC2)C1` [Example 24, 4-(2-isobutyl-2,8-diazaspiro[4.5]decan-8-yl)-6-(2,2,2-trifluoroethyl)thieno[2,3-d]pyrimidine], for which the IC50 in experiment [1] is ≥ 1000 nM; in experiment [2], 100 to 1000 nM.

As for `FC(F)(F)Cc1cc2c(N3CCC4(CCN(Cc5ccccc5)C4)CC3)ncnc2s1` [Example 23, 4-(2-benzyl-2,8-diazaspiro[4.5]decan-8-yl)-6-(2,2,2-trifluoroethyl)thieno[2,3-d]pyrimidine], the figures for the IC50 in experiment [1] and in experiment [2] were ≥ 1000 nM and 100 to 1000 nM, respectively.

For the compound `N#Cc1ccc(CN2CCC3(CCN(c4ncnc5sc(CC(F)(F)F)cc45)C3)C2)cc1` (centres unmarked) [Example 33, 4-((7-(6-(2,2,2-trifluoroethyl)thieno[2,3-d]pyrimidin-4-yl)-2,7-diazaspiro[4.4]nonan-2-yl)methyl)benzonitrile], the IC50 is 100 to 1000 nM in experiment [1] and < 100 nM in experiment [2].

Turning to `CCC(C)CN1CC2(CCN(c3ncnc4sc(CC(F)(F)F)cc34)C2)C1` (centres unmarked) [Example 110, 4-(2-(2-methylbutyl)-2,6-diazaspiro[3.4]octan-6-yl)-6-(2,2,2-trifluoroethyl)thieno[2,3-d]pyrimidine], the IC50 in experiment [1] and in experiment [2] was 100 to 1000 nM each time.

With `FC(F)(F)Cc1cc2c(N3CCC4(CCN(Cc5ccc6[nH]ccc6c5)C4)C3)ncnc2s1` (centres unmarked) [Example 28, 4-(7-((1H-indol-5-yl)methyl)-2,7-diazaspiro[4.4]nonan-2-yl)-6-(2,2,2-trifluoroethyl)thieno[2,3-d]pyrimidine], the results for the IC50 in experiment [1] and in experiment [2] were 100 to 1000 nM and < 100 nM, respectively.

Regarding `FC(F)(F)Cc1cc2c(N3CC4(CN(CC5CCCC5)C4)C3)ncnc2s1` [Example 68, 4-(6-(cyclopentylmethyl)-2,6-diazaspiro[3.3]heptan-2-yl)-6-(2,2,2-trifluoroethyl)thieno[2,3-d]pyrimidine], the IC50 is 100 to 1000 nM in experiment [1] and < 100 nM in experiment [2].

On to `OC1CCC(CN2CC3(C2)CN(c2ncnc4sc(CC(F)(F)F)cc24)C3)CC1` (centres unmarked) [Example 76, 4-((6-(6-(2,2,2-trifluoroethyl)thieno[2,3-d]pyrimidin-4-yl)-2,6-diazaspiro[3.3]heptan-2-yl)methyl)cyclohexan-1-ol], for which the IC50 in experiment [1] was 100 to 1000 nM; in experiment [2], < 100 nM.

Consider `Cc1c(CN2CCC3(CCN(c4ncnc5ccc(CC(F)(F)F)cc45)C3)C2)ccc2[nH]c(C#N)cc12` (centres unmarked) [Example 90, 4-methyl-5-((7-(6-(2,2,2-trifluoroethyl)quinazolin-4-yl)-2,7-diazaspiro[4.4]nonan-2-yl)methyl)-1H-indole-2-carbonitrile], for which the IC50 in experiment [1] is 100 to 1000 nM; in experiment [2], < 100 nM.

Turning to `Cn1c(=O)[nH]c2cc(CN3CCC4(CCN(c5ncnc6sc(CC(F)(F)F)cc56)C4)C3)ccc21` (centres unmarked) [Example 41, 1-methyl-5-((7-(6-(2,2,2-trifluoroethyl)thieno[2,3-d]pyrimidin-4-yl)-2,7-diazaspiro[4.4]nonan-2-yl)methyl)-1H-benzoldlimidazol-2(3H)-one], the IC50 in experiment [1] and in experiment [2] was < 100 nM throughout.

With `Cc1c(CN2CCC3(CCN(c4ncnc5sc(CC(F)(F)F)cc45)C3)C2)ccc2[nH]c(C#N)cc12` (single isomer, unassigned) [Example 30a, 4-methyl-5-((7-(6-(2,2,2-trifluoroethyl)thieno[2,3-d]pyrimidin-4-yl)-2,7-diazaspiro[4.4]nonan-2-yl)methyl)-1H-indole-2-carbonitrile], the IC50 in experiment [1] and in experiment [2] was < 100 nM throughout.

On to `Cc1c(CN2CCC3(C2)CN(c2ncnc4sc(CC(F)(F)F)cc24)C3)ccc2[nH]c(C#N)cc12` [Example 92, 4-methyl-5-((2-(6-(2,2,2-trifluoroethyl)thieno[2,3-d]pyrimidin-4-yl)-2,6-diazaspiro[3.4]octan-6-yl)methyl)-1H-indole-2-carbonitrile], for which the half-inhibitory concentration (IC50) in experiment [1] was 100 to 1000 nM; in experiment [2], < 100 nM.

As to `CC(=O)Nc1ccc(CN2CCC3(CCN(c4ncnc5sc(CC(F)(F)F)cc45)C3)C2)cc1` (centres unmarked) [Example 34, N-(4-((7-(6-(2,2,2-trifluoroethyl)thieno[2,3-d]pyrimidin-4-yl)-2,7-diazaspiro[4.4]nonan-2-yl)methyl)phenyl)acetamide], the results for the IC50 in experiment [1] and in experiment [2] were 100 to 1000 nM and < 100 nM, respectively.

Take `O=c1[nH]c2ccc(CN3CCC4(CCN(c5ncnc6sc(CC(F)(F)F)cc56)C4)C3)cc2[nH]1` (centres unmarked) [Example 39, 5-((7-(6-(2,2,2-trifluoroethyl)thieno[2,3-d]pyrimidin-4-yl)-2,7-diazaspiro[4.4]nonan-2-yl)methyl)-1H-benzo[d]imidazol-2(3H)-one]: the IC50 in experiment [1] and in experiment [2] was < 100 nM each time.

For the compound `CS(=O)(=O)N[C@H]1CC[C@H](CN2CCC3(CC2)CN(c2ncnc4sc(CC(F)(F)F)cc24)C3)CC1` [Example 106, N-((1r,4r)-4-((2-(6-(2,2,2-trifluoroethyl)thieno[2,3-d]pyrimidin-4-yl)-2,7-diazaspiro[3.5]nonan-7-yl)methyl)cyclohexyl)methanesulfonamide], the half-inhibitory concentration (IC50) in experiment [1] was 100 to 1000 nM; in experiment [2], < 100 nM.
